In assay [1] the target is T1, full-length NS3/4A protease (genotype 1b) (Hepatitis C virus genotype 1b, UniProt Q9WMX2).
T1 construct: wild-type HCV NS3 (HCV polyprotein residues 1027–1657); His-tag (N); made in house
Put plainly: biochemical. The settings on record: IC50 Full-length NS3/4A, purified full-length NS3/4A, genotype 1b wild-type. The protocol:
All assays were done in duplicate in black 384-well plates (Matrix Technologies). […] 200 nL of 10 mM compound (50 µM final concentrations) were then added and incubated for 5 minutes. Enzyme reactions were initiated with 10 µL of substrate Ac-DE-Dap(QXL520)-EE-Abu-ψ-[COO]AS-C(5-FAMsp)-NH2 (Anaspec) (1 µM final concentration), incubated for 6 minutes, and quenched by 10 µL of 10% SDS as a stop solution. Fluorescence intensity was monitored with a POLARstar OPTIMA microplate reader (BMG LABTECH). Each plate contained a total of 32 positive and 32 negative controls.
(§1) A series of compound concentrations (0 to 200 µM final concentration at 2-fold serial dilution) in 100% DMSO were prepared in a 384-well plate. 20 µL of enzyme solution was distributed to wells, and 0.5 µL of varying concentration of compounds were added and incubated for 5 minutes. The enzyme reaction was initiated by adding 5 µL of the substrate, and its activity was continuously monitored for 6 minutes. The IC50 values were calculated by fitting with the Hill equation (1), with OriginPro 8.5 (OriginLab, Inc.) where y is percent inhibition, x is inhibitor concentration, n is the slope of the concentration–response curve (Hill slope), and Vmax is maximal inhibition from two to four independent assays. [drawing 1] (1)

The target in assay [2] is T2, NS3/4A protease genotype 2a (Hepatitis C virus genotype 2a, UniProt Q99IB8).
T2 construct: against the NS3/4A protease domains from three additional HCV genotypes (1a, 2a, and 4d); purchased Anaspec
Put plainly: Inhibition assay with NS3/4A from genotype 2a. The note with it: IC50 Purified NS3/4A Sub-genotype 2a, genotype 2a. The format is biochemical. The protocol:
The inhibitory activity of the final hit compounds from HTS were tested against three other HCV genotypes (1a, 2a, and 4d), along with a control (genotype 1b) and five NS3 drug-resistant mutants. Eight full-length NS3 mutants (V36M, R155K, A156T, A156S, 156V, V36A, T54A, and R155T) were generated by mutagenesis and purified, and the three HCV NS3/4A protease genotypes were purchased from Anaspec. Unfortunately the enzyme activities of the three mutants V36A, T54A, and R155T were much less than that of the rest of the mutants and were insufficient for testing, therefore mutant studies were done with the five active mutants. Continuous kinetic assays were performed against all hit compounds in the same way as the wild-type NS3/4A. As a control, full-length NS3/4A (genotype 1b) was tested under the same conditions for direct comparison for each plate.

A further assay relates to replicon cells 1b. Set-up: method as in PMID 19457562, PMID 14578911. The settings on record: cited from earlier work.
A further assay concerns replicon cells 2a. More on the design: method as in PMID 19457562, PMID 14578911. The settings on record: cited from earlier work.
Assay [3] addresses T3, HCV replicon cell lysate sg 1b (NS3) (Hepatitis C virus genotype 1b, UniProt Q9WMX2).
T3 construct: host or cells: Huh7 Clone B cells stably replicating an HCV 1b subgenomic replicon; whole cell lysate
Put plainly: Whole cell lysate inhibition assay, HCV subgenomic replicon 1b. The format is biochemical. The protocol:
(§2) Huh7-1 cells (also known as Huh7/scr cells) were obtained from F.V. Chisari (The Scripps Research Institute, La Jolla, CA). Clone B HCV sub-genotype 1b Huh7 cells were obtained from the NIH AIDS Research and Reference Reagent Program and have been previously described. Huh7 cells stably replicating the sub-genotype 2a HCV JFH-1 replicon were generated as previously described. All cells were cultured in complete Dulbecco’s modified Eagle’s medium (DMEM) supplemented with 10% fetal bovine serum, 100 units/mL penicillin, […] streptomycin, and 2 mM L-glutamine. HCV replicon cells were maintained in 500 µg/mL Geneticin (Invitrogen). For NS3 inhibition analysis, lysates from parental Huh7 cells and HCV replicon cells were harvested on ice in pre-chilled FRET cell lysis buffer (50 mM Tris-HCl, pH 7.5; 150 mM NaCl, 2 mM EDTA, 1.25% Triton X-100). Lysates were brought to room temperature and mixed 1∶1 with 2× FRET assay buffer (100 mM Tris-HCl, pH 7.5, 300 mM NaCl, 4 mM EDTA, 2.5% Triton X-100, 10 mM GSH, and 4 µM substrate). Fluorescence intensity was continuously monitored for 1 hour, and IC50 values were determined in the same way as biochemical assays.
On the technique in general: In antiviral work, replicon cells carry a viral genome segment that copies itself.

The target of the next assay is T4, NS3 protease domain (Hepatitis C virus genotype 1b, UniProt Q9WMX2).
T4 construct: the full-length NS3/4A and the NS3/4A protease domain alone
Put plainly: Fluorescence enzymatic assay with NS3 protease domain alone. The format is biochemical. The protocol: as §1

The target of a further assay is T5, full-length NS3/4A (Hepatitis C virus genotype 1b, UniProt Q9WMX2).
T5 construct: wild-type HCV NS3 (HCV polyprotein residues 1027–1657); His-tag (N); made in house
Put plainly: Type (mechanism) of enzyme inhibition, kinetic analysis. The note with it: with respect to the substrate, best fit model. The format is biochemical. As to the method:
Full-length NS3/4A activity was monitored in the same way as the primary screening with varying concentration of both inhibitor compounds and substrate (0–8 µM). The concentration of compounds varied from 0 to 20 µM at 1.5-fold dilution factor.

In assay [4] the target is T6, HCV replicon cell lysate sg 2a (NS3) (Hepatitis C virus genotype 2a, UniProt Q99IB8).
T6 construct: expressed in transfected cells; host or cells: Huh7 cells stably replicating the JFH-1 subgenomic replicon; whole cell lysate
Description: Whole cell lysate inhibition assay, HCV subgenomic replicon 2a. The format is biochemical. The protocol:
as §2

Turning to `COc1ccc2c(O[C@@H]3C[C@H]4C(=O)N[C@]5(C(=O)O)C[C@H]5/C=C\CCCCC[C@H](NC(=O)OC5CCCC5)C(=O)N4C3)cc(-c3csc(NC(C)C)n3)nc2c1` [BILN-2061, reference compound], the half-maximal inhibitory concentration (IC50) turned out to be 4.6 ± 0.5 nM in assay [1]; 12 ± 1 nM in assay [2]; 37 ± 10 nM in assay [3] (whole cell lysate, subgenomic replicon 1b); 1.7 ± 0.1 nM on NS3 protease domain; 230 ± 30 nM in assay [4] (whole cell lysate, subgenomic replicon 2a). For the same compound, the half-maximal effective concentration (EC50) was 3 nM with replicon cells 1b and 67 nM in the assay on replicon cells 2a. Besides, the “fold increase of IC50, whole cell lysate 1b vs biochemical assay” value in assay [3] (sg1b lysate compared to purified enzyme) is reported as roughly 8 fold. In addition, the mechanism of inhibition result on full-length NS3/4A is “competitive inhibition”. Also, the “fold increase of IC50, whole cell lysate 2a vs biochemical assay” value in assay [4] (sg2a lysate compared to purified enzyme) is roughly 19 fold.

In general, IC50 refers to the point on the concentration scale where inhibition reaches its midpoint. Lower therefore signals inhibition by little substance. Broadly, the EC50 is the concentration that produces a half-maximal response.

(Values after publication PMC3793977, “High-Throughput Screening (HTS) and Hit Validation to Identify Small Molecule Inhibitors with Activity against NS3/4A proteases from Multiple Hepatitis C Virus Genotypes” (PLoS ONE, 2013).)
